Test results published in patent US7196083B2, “Heteropolycyclic inhibitors of protein kinases” (priority 2000, dated 2007).
Read-outs that look alike come from different tables or passages of the source.

How the values were obtained:
Type in all cases: cell-based
[1] = test system: U-87 (human glioma); assay: [3H] thymidine uptake cell proliferation assay, U87
Procedure: Compounds were added to culture at mid-logarithmic growth and incubated for 20 hours. (N=8 for the values+standard errors). […] Cell lines A-549 (human lung carcinoma), B16-F1 (murine melanoma), B16-F10 (murine melanoma), DU-145 (human […] carcinoma), LS-180 (human colon carcinoma), PC3 (human prostate carcinoma), SKOV-3 (human ovarian carcinoma), U-87 (human glioma), and NIH-3T3 (murine embryonic fibroblasts) were all cultured in DMEM supplemented with 10% fetal bovine serum. M3 murine melanoma cells were cultured in DMEM/F12 1:1, and HT-29 human colon carcinoma and LL2 Lewis Lung […] lung carcinoma were cultured in RPMI1640. All the foregoing cell lines were obtained from ATCC. All cells were passaged regularly using 0.25% Trypsin-EDTA in order to maintain cells at exponential growth for various experiments. LS 180 cells were passaged without trypsin and were physically scraped off the culture flasks. In vitro [^3H] thymidine uptake assay. Proliferation can be measured by quantifying the amount of [^3H] thymidine uptake into cells using a β-counter, and therefore is a well-established diagnostic tool to measure DNA synthesis within the cells. […] The cells were allowed to adhere to the plates via incubation at 37° C. in 5% CO2 for 12–14 hours. […] Then, 10 μL of the compound was added to the pre-existing 90 μL per well, and incubated further at 37° C. in 5% CO2 for 20 hours. To measure thymidine incorporation, cells were fixed onto the culture wells by slowly adding ¼^th volume of cold 50% TCA into each well (25 μL to each well) and incubated for 1–2 hours at 4° C. Wells were washed 5 times with tap water to remove any free [^3H] thymidine in the media, and air-dried completely at room temperature. Then, 100 μL of scintillation fluid was added to each well and the activity counted using a Wallac Microbeta Counter.

[2] = test system: NIH-3T3 (murine embryonic fibroblasts); assay: [3H] thymidine uptake cell proliferation assay, NIH3T3; settings: Mus musculus; NIH3T3, non-tumorigenic cell line; read-out: Cell Proliferation Effects (IC50 (nM))
[3] = target: T1, PKB gamma (Homo sapiens, UniProt Q9Y243); assay: Kinase assay in U87 cells using anti PKB gamma antibody; settings: U-87 MG, 1 h, after 60 min, read-out: PKB gamma isoform activity, reduction of activity to
T1 construct: endogenous in cells; host or cells: U87 cells
T1 sequence (Q9Y243 whole entry, canonical isoform): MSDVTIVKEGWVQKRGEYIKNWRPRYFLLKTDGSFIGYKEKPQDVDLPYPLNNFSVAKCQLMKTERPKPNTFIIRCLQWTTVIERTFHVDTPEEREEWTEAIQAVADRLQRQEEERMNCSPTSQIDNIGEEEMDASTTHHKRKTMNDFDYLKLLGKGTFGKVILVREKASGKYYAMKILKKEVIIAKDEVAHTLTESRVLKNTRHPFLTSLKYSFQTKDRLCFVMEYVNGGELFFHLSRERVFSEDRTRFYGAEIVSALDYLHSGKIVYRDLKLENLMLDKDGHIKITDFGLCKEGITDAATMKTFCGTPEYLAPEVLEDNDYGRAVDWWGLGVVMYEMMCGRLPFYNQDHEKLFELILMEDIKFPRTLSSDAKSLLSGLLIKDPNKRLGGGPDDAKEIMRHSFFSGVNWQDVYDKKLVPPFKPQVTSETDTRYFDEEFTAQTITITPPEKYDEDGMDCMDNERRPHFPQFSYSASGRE
Procedure: (§1) In preparation for this assay, each cell line was seeded at a density of 3 times 1,000,000 cells per plate onto 150 mm culture dishes and allowed to establish o/n at 37 deg C. A confluency of 50–60% was obtained to ensure maximal drug penetration into each cell. Once the cells were adherent to the culture plates, there were treated with PKB inhibitor KP-23172 for a final conc. of 5 uM. Each culture plate was lysed on ice at specific time intervals using 1% NP-40 lysis buffer containing various protease inhibitors; 10 ug/uL aprotinin, 10 ug/ul leupeptin, 1 ug/ul pepstatin, 1 M beta-glycerophosphate and 100 mM PMSF. The resulting lysates were centrifuged at 15K×g at 4 deg C. for 5 min and then assayed for its protein conc. using Bradford's Reagent and absorbance measurements at 595 nm. Equal amounts of protein were transferred to a new centrifuge tube and treated with anti-PKB-PH antibody (Kinetek #XXP-021), anti-PKBalpha antibody (Signal Transduction #67220), or anti-PKB gamma antibody (UBI 306-607) and incubated end over end at 4 deg C. […] All vials were counted for one minute in the scintillation counter.
(§2) A kinase assay in cells was also performed using anti PKB alpha and gamma antibodies in order to determine any inhibition of the isoforms by KP-23172. U87 cells were treated with 5 uM compound, lysed, and the resulting supernatant was analyzed for any changed in PKB activity. […]

[4] = test system: M3 murine melanoma cells; assay: [3H] thymidine uptake cell proliferation assay, M3; settings: Mus musculus, read-out: Cell Proliferation Effects (IC50 (nM))
[5] = test system: human breast carcinoma MDA-MB-435 cell line; assay: [3H] thymidine uptake cell proliferation assay, MDA435; settings: read-out: Cell Proliferation Effects (IC50 (nM))
Procedure: The human breast carcinoma MDA-MB-435 cell line was obtained from MD Anderson Cancer Center, and cultured in alpha-MEM media supplemented with 10% Fetal Bovine Serum. Cells were maintained in T150 tissue culture flasks, and grown at 37° C. in a humidified 5% CO2 incubator. All cells were passaged regularly using 0.25% Trypsin-EDTA in order to maintain cells at exponential growth for various experiments. LS 180 cells were passaged without trypsin and were physically scraped off the culture flasks. In vitro [^3H] thymidine uptake assay. Proliferation can be measured by quantifying the amount of [^3H] thymidine uptake into cells using a β-counter, and therefore is a well-established diagnostic tool to measure DNA synthesis within the cells. […] The cells were allowed to adhere to the plates via incubation at 37° C. in 5% CO2 for 12–14 hours. […] Then, 10 μL of the compound was added to the pre-existing 90 μL per well, and incubated further at 37° C. in 5% CO2 for 20 hours. To measure thymidine incorporation, cells were fixed onto the culture wells by slowly adding ¼^th volume of cold 50% TCA into each well (25 μL to each well) and incubated for 1–2 hours at 4° C. […] Then, 100 μL of scintillation fluid was added to each well and the activity counted using a Wallac Microbeta Counter.

[6] = target: T2, PKB alpha (Homo sapiens, UniProt P31749); assay: Kinase assay in U87 cells using anti PKB alpha antibody; settings: U-87 MG, 1 h, after 60 min, read-out: PKB alpha isoform activity, reduction of activity to
T2 construct: endogenous in cells; host or cells: U87 cells
T2 sequence (P31749 whole entry, canonical isoform): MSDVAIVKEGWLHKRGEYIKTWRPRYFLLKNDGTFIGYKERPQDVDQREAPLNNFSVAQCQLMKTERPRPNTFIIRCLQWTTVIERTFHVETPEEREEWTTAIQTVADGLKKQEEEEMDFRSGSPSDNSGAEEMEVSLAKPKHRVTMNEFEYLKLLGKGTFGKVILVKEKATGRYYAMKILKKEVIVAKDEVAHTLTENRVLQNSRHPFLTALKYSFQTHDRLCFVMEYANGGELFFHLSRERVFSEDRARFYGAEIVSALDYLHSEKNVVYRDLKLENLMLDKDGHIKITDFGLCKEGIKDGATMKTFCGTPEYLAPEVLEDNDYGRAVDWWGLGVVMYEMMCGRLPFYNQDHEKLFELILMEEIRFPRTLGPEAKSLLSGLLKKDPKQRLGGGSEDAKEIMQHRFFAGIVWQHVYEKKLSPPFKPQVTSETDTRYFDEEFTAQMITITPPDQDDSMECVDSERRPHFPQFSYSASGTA
Procedure: as §1, §2

[7] = test system: SKOV-3 (human ovarian carcinoma); assay: [3H] thymidine uptake cell proliferation assay, SKOV3; settings: SK-OV-3, read-out: Cell Proliferation Effects (IC50 (nM))

In the case of O=C1c2ccccc2-c2nc3nnnn3nc21 [KP-23172], the IC50 ([1]; U-87 MG, U87, read-out: Cell Proliferation Effects (IC50 (nM))) is reported as 50 nM, the IC50 ([1]; added at mid-logarithmic growth, incubated 20 hours, N=8, read-out: U87 proliferation (thymidine incorporation) IC50, FIG. 1) is reported as 50 nM and the IC50 [2] is reported as 150 nM. The activity at 5 µM [3] was 18.3%, the IC50 [4] was 25 nM and the IC50 [5] was 60 nM. For the same compound, the activity at 5 µM [6] was 29.6% and the IC50 [7] was 200 nM.
